Data as given in paper PMC9506049, “Oxidation of p-[^125I]Iodobenzoic Acid and p-[^211At]Astatobenzoic Acid Derivatives and Evaluation In Vivo” (International Journal of Molecular Sciences, 2022).

Tests used:
[1] = Stability to isolation from radio-HPLC effluent, evaporation and dissolution in PBS (radio-HPLC reinjection); assay type: physicochemical; details: evaporation of solvents, dissolution in PBS
Description: Similarly, radiohalogenation of para-tri-n-butylstannylbenzamidyl-dPEG4-carboxylic acid methyl ester 9 (Figure 3) using ChT as oxidant provided quantitative yields of [^125I]10 and [^211At]12 by radio-HPLC analyses (Figure 4A,B). The radiohalogenation reaction products were used without purification in the oxidation reactions to make the corresponding iodoxyaryl or astatoxyaryl compounds. Oxidation of [^125I]5 (Figure 2) provided [^125I]6 in 71% RCY. Oxidation of [^125I]10 (Figure 3) at 70 °C for 20 min provided a complex mixture of products, but isolation of the major peak (~6–8 min) provided [^125I]11 in 60% RCY (Figure 4C,E). […]
Two biodistribution studies were conducted. One biodistribution study evaluated the tissue distribution in athymic mice of isolated products from the reactions to produce [^125I]11 and [^211At]13. […]
HPLC analyses of non-radioactive compounds were performed using a system composed of a Hewlett-Packard quaternary 1050 gradient pump, a variable wavelength UW detector (254 nm) and an evaporative light scattering detector (ELSD 2000, Alltech, Deerfield, IL, USA). Radio-HPLC analysis of product mixtures from radiohalogenation reactions were analyzed using a system composed of two Beckman model 110 B pumps, a Beckman 420 controller, a Beckman model 153 UV detector (254 nm), and a Beckman model 170 radiation detector. […]

[2] = Biodistribution of coinjected [125I]11 and [211At]13 in athymic mice; assay type: in vivo; details: tail vein coinjection, 3 µCi each, n = 5, mean ± SD; for Concentration of radioactivity in neck: neck (thyroid)
[3] = Solubility observations; assay type: physicochemical

COC(=O)CCOCCOCCOCCOCCNC(=O)c1ccc([211At](=O)=O)cc1 [[211At]13, p-[^211At]astatoxylbenzoyl-dPEG-methyl ester]
Stability under the conditions of isolation by radio-HPLC [1]: too unstable

COC(=O)CCOCCOCCOCCOCCNC(=O)c1ccc([125I](=O)=O)cc1 [[125I]11]
Stability under the conditions of isolation by radio-HPLC [1]: did not change during that process | Concentration of radioactivity in blood ([2]; 1 h p.i.): 0.22 ± 0.14 %ID/g | Concentration of radioactivity in intestine ([2]; 1 h p.i.): 9.59 ± 8.73 %ID/g | Concentration of radioactivity in kidney ([2]; 1 h p.i.): 0.84 ± 0.23 %ID/g | Concentration of radioactivity in liver ([2]; 1 h p.i.): 1.73 ± 0.96 %ID/g | Concentration of radioactivity in lung ([2]; 1 h p.i.): 0.32 ± 0.10 %ID/g | Concentration of radioactivity in muscle ([2]; 1 h p.i.): 0.12 ± 0.05 %ID/g | Concentration of radioactivity in spleen ([2]; 1 h p.i.): 0.35 ± 0.28 %ID/g | Concentration of radioactivity in stomach ([2]; 1 h p.i.): 3.53 ± 1.09 %ID/g | Concentration of radioactivity in blood ([2]; 4 h p.i.): 0.23 ± 0.18 %ID/g | Concentration of radioactivity in intestine ([2]; 4 h p.i.): 3.39 ± 1.15 %ID/g | Concentration of radioactivity in kidney ([2]; 4 h p.i.): 0.40 ± 0.15 %ID/g | Concentration of radioactivity in liver ([2]; 4 h p.i.): 0.64 ± 0.47 %ID/g | Concentration of radioactivity in lung ([2]; 4 h p.i.): 0.14 ± 0.07 %ID/g | Concentration of radioactivity in muscle ([2]; 4 h p.i.): 0.03 ± 0.01 %ID/g | Concentration of radioactivity in spleen ([2]; 4 h p.i.): 0.08 ± 0.04 %ID/g | Concentration of radioactivity in stomach ([2]; 4 h p.i.): 0.65 ± 0.16 %ID/g | Concentration of radioactivity in blood ([2]; 24 h p.i.): 0.01 ± 0.00 %ID/g | Concentration of radioactivity in intestine ([2]; 24 h p.i.): 0.02 ± 0.01 %ID/g | Concentration of radioactivity in kidney ([2]; 24 h p.i.): 0.03 ± 0.01 %ID/g | Concentration of radioactivity in liver ([2]; 24 h p.i.): 0.01 ± 0.00 %ID/g | Concentration of radioactivity in lung ([2]; 24 h p.i.): 0.54 ± 0.85 %ID/g | Concentration of radioactivity in spleen ([2]; 24 h p.i.): 0.01 ± 0.00 %ID/g | Concentration of radioactivity in stomach ([2]; 24 h p.i.): 0.02 ± 0.01 %ID/g | Concentration of radioactivity in neck ([2]; 1 h p.i.): 0.49 ± 0.09 %ID/g | Concentration of radioactivity in neck ([2]; 4 h p.i.): 0.35 ± 0.14 %ID/g | Concentration of radioactivity in neck ([2]; 24 h p.i.): 0.02 ± 0.01 %ID/g

COC(=O)c1ccc(I(=O)=O)cc1 [Compound 6, Para-Iodoxybenzoic Acid Methyl Ester]
Solubility in DMSO ([3]; DMSO at room temperature): only partially soluble | Solubility ([3]; all solvents tried): very insoluble in all solvents tried | melting point: 243 to 245 °C
